{"source": "the supplement of paper PMC10307832", "assay_in_all_cases": "relative viability (nuclei count vs DMSO), 5 days (fraction); higher = more cells survive", "key": {"NCI-H1975": {"test_system": "NCI-H1975", "method_in_brief": "(§1)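 After 5 days of treatment, lung cancer cells in 1536-well plates were fixed and stained in a single step (final 0.05% Triton X-100, 1% formaldehyde, 1 ug/ml Hoechst) and their nuclei counted on 4× images. Treatment had been applied by pin tool the day after seeding as one drug alone or as a fixed anchor-drug dose with five library-drug doses (not always all listed) in √10 steps. Relative viability is the nuclei count of treated wells divided by that of vehicle wells, and values are medians of duplicate plates.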"}, "H3255": {"test_system": "H3255", "method_in_brief": "as §1"}, "NCI-H1734": {"test_system": "NCI-H1734", "method_in_brief": "as §1"}, "NCI-H1563": {"test_system": "NCI-H1563", "method_in_brief": "as §1"}, "ChaGo-K-1": {"test_system": "ChaGo-K-1", "method_in_brief": "as §1"}, "NCI-H1666": {"test_system": "NCI-H1666", "method_in_brief": "as §1"}, "NCI-H23": {"test_system": "NCI-H23", "method_in_brief": "as §1"}, "EKVX": {"test_system": "EKVX", "method_in_brief": "as §1"}, "NCI-H596": {"test_system": "NCI-H596", "method_in_brief": "as §1"}, "HCC-366": {"test_system": "HCC-366", "method_in_brief": "as §1"}, "NCI-H441": {"test_system": "NCI-H441", "method_in_brief": "as §1"}, "COR-L 105": {"test_system": "COR-L 105", "method_in_brief": "as §1"}, "PC-3 [JPC-3]": {"test_system": "PC-3 [JPC-3]", "method_in_brief": "as §1"}, "NCI-H1755": {"test_system": "NCI-H1755", "method_in_brief": "as §1"}, "LOU-NH91": {"test_system": "LOU-NH91", "method_in_brief": "as §1"}, "EMC-BAC-2": {"test_system": "EMC-BAC-2", "method_in_brief": "as §1"}, "A-427": {"test_system": "A-427", "method_in_brief": "as §1"}, "NCI-H520": {"test_system": "NCI-H520", "method_in_brief": "as §1"}, "NCI-H1792": {"test_system": "NCI-H1792", "method_in_brief": "as §1"}}}
{"smiles": "C[C@@H]1CN(CC(=O)Nc2ccc3c(c2)Cc2cccc(-c4cc(=O)cc(N5CCOCC5)o4)c2S3)C[C@H](C)O1", "note": "+ CC(C)C[C@H](NC(=O)[C@H](Cc1ccccc1)NC(=O)c1cnccn1)B(O)O [Bortezomib] (partner 0.002 µM)", "values": [{"measurement": "relative viability", "setting": "NCI-H1975; first compound 0.04 µM", "result": 0.394}, {"measurement": "relative viability", "setting": "NCI-H1975; first compound 0.1265 µM", "result": 0.415}, {"measurement": "relative viability", "setting": "NCI-H1975; first compound 0.4 µM", "result": 0.39}, {"measurement": "relative viability", "setting": "NCI-H1975; first compound 4 µM", "result": 0.27}, {"measurement": "relative viability", "setting": "H3255; first compound 0.04 µM", "result": 0.495}, {"measurement": "relative viability", "setting": "H3255; first compound 0.1265 µM", "result": 0.771}, {"measurement": "relative viability", "setting": "H3255; first compound 0.4 µM", "result": 0.534}, {"measurement": "relative viability", "setting": "H3255; first compound 4 µM", "result": 0.582}, {"measurement": "relative viability", "setting": "NCI-H1734; first compound 0.04 µM", "result": 1.07}, {"measurement": "relative viability", "setting": "NCI-H1734; first compound 0.1265 µM", "result": 1.04}, {"measurement": "relative viability", "setting": "NCI-H1734; first compound 0.4 µM", "result": 0.927}, {"measurement": "relative viability", "setting": "NCI-H1734; first compound 4 µM", "result": 1.1}, {"measurement": "relative viability", "setting": "NCI-H1563; first compound 0.04 µM", "result": 0.89}, {"measurement": "relative viability", "setting": "NCI-H1563; first compound 0.1265 µM", "result": 1.01}, {"measurement": "relative viability", "setting": "NCI-H1563; first compound 0.4 µM", "result": 0.828}, {"measurement": "relative viability", "setting": "NCI-H1563; first compound 4 µM", "result": 0.797}, {"measurement": "relative viability", "setting": "ChaGo-K-1; first compound 0.1265 µM", "result": 1.02}, {"measurement": "relative viability", "setting": "ChaGo-K-1; first compound 0.4 µM", "result": 0.936}, {"measurement": "relative viability", "setting": "ChaGo-K-1; first compound 4 µM", "result": 0.87}, {"measurement": "relative viability", "setting": "NCI-H1666; first compound 0.04 µM", "result": 0.872}, {"measurement": "relative viability", "setting": "NCI-H1666; first compound 0.1265 µM", "result": 0.993}, {"measurement": "relative viability", "setting": "NCI-H1666; first compound 0.4 µM", "result": 0.823}, {"measurement": "relative viability", "setting": "NCI-H1666; first compound 4 µM", "result": 0.643}, {"measurement": "relative viability", "setting": "NCI-H23; first compound 0.04 µM", "result": 1.27}, {"measurement": "relative viability", "setting": "NCI-H23; first compound 0.1265 µM", "result": 1.21}, {"measurement": "relative viability", "setting": "NCI-H23; first compound 0.4 µM", "result": 1.03}, {"measurement": "relative viability", "setting": "NCI-H23; first compound 4 µM", "result": 0.991}, {"measurement": "relative viability", "setting": "EKVX; first compound 0.04 µM", "result": 1.19}, {"measurement": "relative viability", "setting": "EKVX; first compound 0.1265 µM", "result": 1.02}, {"measurement": "relative viability", "setting": "EKVX; first compound 0.4 µM", "result": 0.945}, {"measurement": "relative viability", "setting": "EKVX; first compound 4 µM", "result": 0.705}, {"measurement": "relative viability", "setting": "NCI-H596; first compound 0.04 µM", "result": 0.937}, {"measurement": "relative viability", "setting": "NCI-H596; first compound 0.1265 µM", "result": 1.12}, {"measurement": "relative viability", "setting": "NCI-H596; first compound 0.4 µM", "result": 1.01}, {"measurement": "relative viability", "setting": "NCI-H596; first compound 4 µM", "result": 0.923}, {"measurement": "relative viability", "setting": "HCC-366; first compound 0.04 µM", "result": 0.999}, {"measurement": "relative viability", "setting": "HCC-366; first compound 0.1265 µM", "result": 1.04}, {"measurement": "relative viability", "setting": "HCC-366; first compound 0.4 µM", "result": 1.24}, {"measurement": "relative viability", "setting": "HCC-366; first compound 4 µM", "result": 0.978}, {"measurement": "relative viability", "setting": "NCI-H441; first compound 0.04 µM", "result": 0.6}, {"measurement": "relative viability", "setting": "NCI-H441; first compound 0.4 µM", "result": 0.445}, {"measurement": "relative viability", "setting": "NCI-H441; first compound 4 µM", "result": 0.489}, {"measurement": "relative viability", "setting": "COR-L 105; first compound 0.04 µM", "result": 0.741}, {"measurement": "relative viability", "setting": "COR-L 105; first compound 0.1265 µM", "result": 0.896}, {"measurement": "relative viability", "setting": "COR-L 105; first compound 0.4 µM", "result": 1.1}, {"measurement": "relative viability", "setting": "COR-L 105; first compound 4 µM", "result": 0.484}, {"measurement": "relative viability", "setting": "PC-3 [JPC-3]; first compound 0.04 µM", "result": 0.861}, {"measurement": "relative viability", "setting": "PC-3 [JPC-3]; first compound 0.1265 µM", "result": 0.771}, {"measurement": "relative viability", "setting": "PC-3 [JPC-3]; first compound 0.4 µM", "result": 0.908}, {"measurement": "relative viability", "setting": "PC-3 [JPC-3]; first compound 4 µM", "result": 0.677}, {"measurement": "relative viability", "setting": "NCI-H1755; first compound 0.04 µM", "result": 1.05}, {"measurement": "relative viability", "setting": "NCI-H1755; first compound 0.1265 µM", "result": 1.01}, {"measurement": "relative viability", "setting": "NCI-H1755; first compound 0.4 µM", "result": 0.948}, {"measurement": "relative viability", "setting": "NCI-H1755; first compound 4 µM", "result": 0.942}, {"measurement": "relative viability", "setting": "LOU-NH91; first compound 0.04 µM", "result": 0.495}, {"measurement": "relative viability", "setting": "LOU-NH91; first compound 0.1265 µM", "result": 0.446}, {"measurement": "relative viability", "setting": "LOU-NH91; first compound 0.4 µM", "result": 0.428}, {"measurement": "relative viability", "setting": "LOU-NH91; first compound 4 µM", "result": 0.527}, {"measurement": "relative viability", "setting": "EMC-BAC-2; first compound 0.04 µM", "result": 1.07}, {"measurement": "relative viability", "setting": "EMC-BAC-2; first compound 0.1265 µM", "result": 1.1}, {"measurement": "relative viability", "setting": "EMC-BAC-2; first compound 0.4 µM", "result": 1.06}, {"measurement": "relative viability", "setting": "EMC-BAC-2; first compound 4 µM", "result": 0.985}, {"measurement": "relative viability", "setting": "A-427; first compound 0.04 µM", "result": 1.02}, {"measurement": "relative viability", "setting": "A-427; first compound 0.1265 µM", "result": 0.993}, {"measurement": "relative viability", "setting": "A-427; first compound 0.4 µM", "result": 0.952}, {"measurement": "relative viability", "setting": "A-427; first compound 4 µM", "result": 1.03}, {"measurement": "relative viability", "setting": "NCI-H520; first compound 0.04 µM", "result": 0.906}, {"measurement": "relative viability", "setting": "NCI-H520; first compound 0.1265 µM", "result": 0.671}, {"measurement": "relative viability", "setting": "NCI-H520; first compound 0.4 µM", "result": 0.247}, {"measurement": "relative viability", "setting": "NCI-H520; first compound 4 µM", "result": 0.584}, {"measurement": "relative viability", "setting": "NCI-H1792; first compound 0.04 µM", "result": 0.939}, {"measurement": "relative viability", "setting": "NCI-H1792; first compound 0.1265 µM", "result": 0.913}, {"measurement": "relative viability", "setting": "NCI-H1792; first compound 0.4 µM", "result": 0.924}, {"measurement": "relative viability", "setting": "NCI-H1792; first compound 4 µM", "result": 0.859}]}
